Data set [1] has as its system Bel (human liver cancer) cells. Put plainly: MTT antitumor activity in vitro, Bel cells. In kind it is cell-based. The note with it: 50 μg/mL, DMSO as solvent. As for the experimental part:
(§1) The antitumor activity in vitro was assayed by the MTT method using DMSO as solvent.

The test system of data set [2] is KB (human nasopharyngeal cancer) cells. Put plainly: MTT antitumor activity in vitro, KB cells. The format is cell-based. The conditions noted are these: 50 μg/mL, DMSO as solvent. On the procedure:
(§2) The antitumor activity in vitro was assayed by the MTT method using DMSO as solvent. The tumor inhibition yield and IC50 of the five organogermanium sesquioxides and Ge-132 against KB (human nasopharyngeal cancer), HCT (human colonic cancer), and Bel (human liver cancer) cells were measured.

Data set [3] relates to KB, HCT, and Bel cells. Put plainly: MTT antitumor activity in vitro, cell line not singled out. In kind it is cell-based, human. The note with it: bioassay at 1, 10, and 50 μg/mL. As for the experimental part:
as §1

Data set [4] concerns HCT (human colonic cancer) cells. Put plainly: MTT antitumor activity in vitro, HCT cells. The format is cell-based. The note with it: 50 μg/mL, DMSO as solvent. As for the experimental part:
as §2

Data set [5] is described as follows: Solubility of the powders. The format is physicochemical. The note with it: 2 mol/L of NaOH solution.
A short description of data set [6]: Biodistribution in nude mice bearing human colonic cancer xenografts. The conditions noted are these: for Biodistribution, uptake: Tumor; for Biodistribution, uptake / T/NT (ratio of ID %/g of tumor over normal tissue): n = 3; for T/NT (ratio of ID %/g of tumor over normal tissue): 20 h. In kind it is in vivo, Balb/c nude mice. As for the experimental part: Experimental animals (Balb/c nude mice) were provided by Experimental Animal Department of Chinese Academy of Medical Sciences. The nude mice were implanted with human colonic carcinoma cells (LoVo cells). When the tumor size was about 1 cm, the mice were used for the experiment.
Twelve nude mice bearing human colonic cancer xenografts were injected in tail vein with 555~740 kBq of ^99mTc labeled compound 5. Three animals were sacrified at 1-hour, 3-hour, 6-hour, and 20-hour postinjection, respectively. Tissues and organs were excised, rinsed, weighted, and counted in a γ counter. The uptake percentage of the injected dose per gram of the measured organ (ID %/g) and the ratio of ID %/g of tumor over normal tissues (T/NT) were calculated.
Background: In xenograft studies the graft and the host belong to different species.

Consider `O=C1OC(=O)C2C3OC(C[CH]3[Ge](=[O])[O][Ge](=[O])[CH]3CC4OC3C3C(=O)OC(=O)C43)C12` (centres unmarked) [Compound 1], for which the Inhibition yield in data set [1], in data set [2] and in data set [4] was 0% each time. In data set [3], the “antitumor activity against cancer cells (in words)” value (shortened to “antitumor activity”) is “no antitumor activity”.
In the case of `O=C1NC(=O)C2C3OC(C[CH]3[Ge](=[O])[O][Ge](=[O])[CH]3CC4OC3C3C(=O)NC(=O)C43)C12` (centres unmarked) [Compound 2], the Inhibition yield in data set [1], in data set [2] and in data set [4] was 0% each time. Further, the “antitumor activity” value in data set [3] is listed as “no antitumor activity”.
As to `NN1C(=O)C2C3C[CH]([Ge](=[O])[O][Ge](=[O])[CH]4CC5OC4C4C(=O)N(N)C(=O)C54)C(O3)C2C1=O` (centres unmarked) [Compound 3], the Inhibition yield in data set [1], in data set [2] and in data set [4] was 0% each time. In addition, the “antitumor activity” value in data set [3] is “no antitumor activity”. Moreover, in data set [5], the solubility result is on record as “easily soluble”.
On to `CCOC(=O)CCC(NC(=O)C[CH2][Ge](=[O])[O][Ge](=[O])[CH2]CC(=O)NC(CCC(=O)OCC)C(=O)OCC)C(=O)OCC` (centres unmarked) [Compound 4, Germanium Sesquioxide of Ethyl Glutamate], for which the Inhibition yield worked out at 0% in data set [2] and 41.5% in data set [4]. The “antitumor activity” value in data set [3] is on record as “certain activities”.
Turning to `NC(=S)NCC[CH2][Ge](=[O])[O][Ge](=[O])[CH2]CCNC(N)=S` [Compound 5, γ-thiocarbamido propyl germanium sesquioxide], the Inhibition yield in data set [1] is listed as 70.9%; in data set [2], 92.9%; in data set [4], 84.9%. Besides, the “Biodistribution, uptake” value in data set [6] (1 h postinjection) is 0.73 % ID/g; in data set [6] (3 h postinjection), 0.97 % ID/g; in data set [6] (6 h postinjection), 0.87 % ID/g; in data set [6] (20 h postinjection), 0.62 % ID/g. Besides, in data set [6] (nude mice, tail vein injection), the clearance in tumor entry is “relatively low”. Moreover, the “T/NT (ratio of ID %/g of tumor over normal tissue)” value is 3.01 in data set [6] (tumor versus Blood), 18.30 in data set [6] (tumor versus Brain) and 5.81 in data set [6] (tumor versus Muscle). Further, the “antitumor activity” value in data set [3] is “certain activities”. In data set [5], the solubility result is reported as “easily soluble”.
Take `O=C(O)C[CH2][Ge](=[O])[O][Ge](=[O])[CH2]CC(=O)O` [Ge-132, carboxyethylgermanium sesquioxide, reference compound]: the Inhibition yield in data set [1] is reported as 0%; in data set [2], 0%; in data set [4] it was 31.4%.

These data come from paper PMC2695949, “Synthesis and Evaluation of Novel Organogermanium Sesquioxides As Antitumor Agents” (Bioinorganic Chemistry and Applications, 2009).
